In data set [1] the test system is women with uterine myoma. As to conditions: unpublished studies; cited from earlier work.
The subject of data set [2] is women patients having primary dysmenorrhea. Kind of data set: Effect on pelvic pains in women having primary dysmenorrhea (Example 4, group II). The format is in vivo. As to conditions: intravaginal administration. The protocol:
Sixty-ninewomen having symptomatic uterine myoma or primary dysmenorrhea were enrolled to this study. The women were treated with vaginal suppositories of S-ethylisothiouronium diethylphosphate (100 mg of S-ethylisothiouronium diethylphosphate in 2 gr of Suppocire® per day, applied in the posterior vaginal fornix).
In addition, the effect of S-ethylisothiouronium diethylphosphate on pelvic pains was evaluated in 38 women patients having primary dysmenorrhea (group II). The average age of the patients was 24.8±4.1 years. All the 38 patients had experienced at least 6 painful menstrual cycles prior to their inclusion in the study. The duration of the menstrual cycle in all cases was normal, i.e., of 21-35 days, with the menstruation lasting 3-7 days. Further, none of the patients was treated with oral contraceptives for at least 6 months before enrollment. The patients were eligible for the study following the confirmation of normal hematological and biochemical indexes and exclusion of antecedent gynecological surgical procedures.
To evaluate the intensity of pain, the patients reported the pain intensity at the beginning of the study, during, and at the termination of the medical management using one of the following terms: absence of pain; greatly diminished pain; slightly diminished pain; similar pain as of the previous treatment; and intensification of pain. […]

Data set [3] concerns women with uterine myoma. In words: S-ethylisothiouronium bromide in abnormal uterine hemorrhages and pelvic pains associated with uterine myoma (unpublished studies) and comparison. It is filed as in vivo. As to conditions: found to be preferable over S-ethylisothiouronium bromide.
Data set [4] relates to women showing abnormal uterine bleeding. In words: Effect of vaginal suppositories on abnormal uterine bleeding in women (Example 1). It is filed as in vivo. The protocol: Thirty-six women showing abnormal uterine bleeding were enrolled to this study. Each woman received one suppository of S-ethylisothiouronium diethylphosphate (100 mg of S-ethylisothiouronium diethylphosphate in 2 gr of Suppocire®, a suppository base obtained by esterification of hydrogenated palm oil and hydrogenated palm kelnel oil) per day, applied in the posterior vaginal fornix.

In data set [5] the test system is women suffering from primary or secondary dysmenorrhea. Kind of data set: Effect of vaginal suppositories on pain in primary or secondary dysmenorrhea (Example 3). It is filed as in vivo. On the procedure: Vaginal suppositories containing S-ethylisothiouronium diethylphosphate (100 mg each/day) were applied to 28 women suffering from primary or secondary dysmenorrhea.

The next data set has as its system Wistar male rats. Kind of data set: Tail-flick test, pain under thermal stimulation (Example 2). It is filed as in vivo. On the procedure:
The study was carried out on Wistar male rats (body weight of 210 g). The experiment was carried out on 30 rats divided into 3 groups of 10 animals each. The presence of pain was determined using the Tail-flick test, This method is based on monitoring the reaction time for the typical tail-withdrawal reflex as a result of thermal stimulation. First, the temperature (° C.) at which rat tails was withdrawn was determined, thus identifying the thermal level that caused pain. One hour later, the rats were injected intraperitoneally with S-ethylisothiouronium diethylphosphate in 0.9% NaCl. One group (10 rats) was injected with 5 mg/kg body weigh of S-ethylisothiouronium diethylphosphate, whilst the second and third groups (10 rats each) were injected with 10 and 20 mg/kg body weight, respectively.

Setting [6] is: 24 hours after beginning of treatment, 100 mg/day vaginal suppository, 28 women.

As for `Br.CCSC(=N)N` [S-ethylisothiouronium bromide], in the data set with women with uterine myoma [1], the “duration of effect and side effects” value was “short-duration effect accompanied with side effects such as digestive disturbances and complications”; the “effect on abnormal uterine hemorrhages and pelvic pains” value is “effective in reducing the abnormal uterine hemorrhages and pelvic pains”.

As to S-ethylisothiouronium diethylphosphate, the “treated women in whom uterine cramps were abrogated” value in data set [2] is reported as “about 95%”. In addition, the “comparison with S-ethylisothiouronium bromide” value in the data set with women with uterine myoma [3] was “longer bioactivity, higher efficacy, and little or no side-effects”. Also, the “complete disappearance of pathological uterine bleeding” value in data set [4] (after six suppositories (100 mg each), intravaginally, one per day, 36 women) is recorded as 87.8 % of cases. In addition, in data set [4] (over the course of three consecutive months), the “patients reporting menstrual cycles with a normal duration and interval” value is 94.4%. Besides, the “intensity of bleeding moderately reduced, full haemostatic effect not reached” value in data set [4] (patients, vaginal suppositories 100 mg per day) was 12.2%. The “Haemostasis obtained, on average, time from the start of treatment” value in data set [4] (vaginal suppositories 100 mg per day) fell in the range of 40 to 58 h. In data set [5] (setting [6]), the “complete disappearance of the pain” value was 39.3% and the “significant decrease in the intensity of the pain” value was 60.7 % of the cases. Further, the “eradication of pain” value in data set [5] (48 hours after beginning of treatment, after a second suppository) is recorded as “fully eradicated in all treated women”. For the same molecule, in the data set on Wistar male rats (5 mg/kg intraperitoneal), the “increase of thermal level for tail withdrawal” value is “about 21%”. Further, the “thermal level for tail withdrawal after injection” value in the data set on Wistar male rats (5 mg/kg intraperitoneal, before injection 73+1.26° C.) is 89.01+5.11 °C. The “increase of pain reception level under thermal stimulation” value with Wistar male rats (10 mg/kg body weight intraperitoneal) was “about 31%”. The “pain reception level under thermal stimulation after injection” value in the data set with Wistar male rats (10 mg/kg body weight intraperitoneal, before injection 73+3.63° C.) is 96.4+3.98 °C. Also, in the data set with Wistar male rats (20 mg/kg body weight intraperitoneal), the “increase of pain reception level” value is on record as 59%. In the data set on Wistar male rats (20 mg/kg body weight intraperitoneal, before injection 73.5±2.07), the “pain reception level after injection” value was determined as 16.8±9.51 °C. The “analgesic activity (conclusion in words)” value in the data set on Wistar male rats (tail-flick test, 5-20 mg/kg intraperitoneal) is “potent analgesic agent”.

These data come from US12011423B2, “S-alkylisothiouronium derivatives for treating uterine hypercontractility disorders” (FORAVISET LTD., priority 2007, dated 2024).
